Measured values published in patent US8178688B2, “Benzamidine derivatives, process for the preparation thereof and pharmaceutical composition comprising the same” (Dong Wha Pharmaceutical Co., Ltd., priority 2004, dated 2012).
Where two headings read alike, the source gives them in different places.

Legend:
[1] = test system: osteoclast differentiation; assay: Inhibitory effects on osteoclast differentiation (co-culture of bone marrow cells with osteoblast, TRAP staining); type: cell-based, mice; conditions: Mus musculus, Osteoclast, 168 h, co-culture of bone marrow cells and osteoblast, 7 days, TRAP-positive osteoclasts versus controls, read-out: % inhibitory activity on osteoclastogenesis
In short: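 Bone marrow cells from 6–8-week male ddY mice co-cultured with neonatal ICR mouse calvarial osteoblasts in α-MEM/FBS with dexamethasone (10^−7M) and vitamin D3 (10^−8M) for 7 days, compound and medium renewed every 2–3 days. TRAP-positive cells with ≥3 nuclei counted; inhibition given as percent of control.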

[2] = test system: mouse models of ovalbumin-induced asthma; assay: Therapeutic effect in mouse model of asthma induced with ovalbumin (lung weight, total leukocytes in blood and BALF); type: in vivo, C57BL/6 mice; conditions: for Changes on the lung weight, Absolute: 200 mg/kg oral once a day from sensitization, vehicle control 0.134 ± 0.012, sham 0.110 ± 0.009; for Changes on the lung weight, Relative (%) / Total leukocytes in peripheral blood (×10^3/1 mm^3) / Total leukocytes in BALF (×10^5/1 ml): 200 mg/kg oral once a day; for Changes on the lung weight, Relative (%): % of body weight, vehicle control 0.780 ± 0.103, sham 0.694 ± 0.049; for Total leukocytes in peripheral blood (×10^3/1 mm^3): vehicle control 14.49 ± 0.88, sham 10.27 ± 0.93; for Total leukocytes in BALF (×10^5/1 ml): vehicle control 75.68 ± 4.67, sham 51.75 ± 2.15
Procedure: The benzamidine compounds were assated for therapeutic effect on allergic inflammation in mouse models of ovalbumin-induced asthma. Starting on the day of immunization the benzamidine compounds were dosed for 17 consecutive days. The experimental animals were re-exposed to ovalbumin 14 days after the sensitization and then sacrificed 3 days after the re-exposure. Changes in lung weight, cellular components of peripheral blood and bronchoalveolar lavage fluid, and lung histopathology were observed.
A total of 110 female C57BL/6 mice (7-week-old, SLC, Japan) were adapted to a laboratory environment for 6 days before being used in earnest experiments. While being housed at a densirt of five in a plastic cage, the experimental animals were breed in a breeding room with controlled temperature (20-25° C.) and humidity (30-35%). Under light-dark cycles of 12 hours, mice were allowed to have free access to feedstuff and tap water. While asthma was induced in 100 mice by ovalbumin, 10 mice were used as a non-treated group.
200 mg of benzamidine compounds (Methansulfonic acid or Hydrochloride) were completely dissolved in 5 ml of sterilized distilled water. The benzamidine compound in the solutions was orally administered at doses of 200 mg per kg of body weight once a day from the day of the sensitization with ovalbumin. The control group was administered with equal volumes of sterilized distilled water in the same manner.
A solution of 200 μg of ovalbumin (Grade VI; Sigma, st. Louis, Mo., USA) and 180 mg of aluminium hydroxide (Al(OH)3, dried powder gel; Aldrich, Milwaukee, USA) in 4 ml of physiological saline was allowed to stand at 4° C. overnight and was administered to the experimental animals (200 μl, abdominal injection) for sensitization. As for the non-treated group, a solution of only aluminium hydroxide in saline was injected. 15 days after sensitization, a 1.5% ovalbumin solution was sprayed in air using a nebulizer, followed by exposing the experimental animals to the spray for 10 min to induce asthma therein. The non-treated group was exposed only to saline in the same manner. All the experimental animals were sacrificed 3 days after the exposure.
On the final day of experiment, the lungs were separated form adjacent organs. The removed lungs were weight among individual animals, the relative weight of the lungs was calculated as a percentage of body weight using the following Equation 3. Relative weight of Lung(%)=(Absolute lung weight/Body weight)×100 Equation 3
On the final day of experiment, all the experimental animals were etherized and underwent laparotomy to expose the abdominal vena cava, from which 1 ml of blood was the taken. Using a hemocytometer, a blood sample was measured for total leukocyte counts in a ×10^3/1 mm^3 units.
On the final day of experiment, secretions present in bronchi and alveola were examined for cyrological constitution. After veing etherized, the experimental animals were operated to open the cervical region and the thorax. The jugular vein was allowed to bleed, followed by endotracheal intubation. 3 ml of phosphate buffered saline was injected twice through the tube and the thorax was massaged for 30 sec to obtain cell suspension from the lungs. Using a hemocytometer, a […] was measured for total leukocyte counts in a ×10^5/1 ml units.

[3] = test system: ovariectomized ddY mouse; assay: Therapeutic effect in the ovariectomized osteoporetic mouse model (trabecular bone volume of the femur); type: in vivo, ddY mice; conditions: Mus musculus, 672 h, 50 mg/kg/day oral gavage for 4 weeks from 4 weeks after ovariectomy, salts (methansulfonic acid or HCl), read-out: Changes on TBV (% changes vs vehicle control)
Procedure: The therapeutic effects of each benzamidine derivates were evaluated on the ovariectomized ddY mouse. Benzamidine derivates were dosed from 4 weeks after operation for 4 weeks and the changes on the trabecular bone volume (TBV) of the femur were observed via histomorphometry.
Female ddY mice (6-wk old upon receipt, SLC, Japan) were used after acclimatization for 7 days. Animals were allocated 5 per polycarbonate cage in a temperature (20-25° C.) and humidity (30-35%) controlled room. Light:dark cycle was 12 hr:12 hr and feed (Samyang, Korea) and water were supplied free to access.
Salts of benzamidine derivates (Methansulfonic acid or HCl) were used for the test substances of this invention. Test substances are dissolved and/or suspended in injectable distilled water and administered at a dosage volume of 10 ml/kg by oral gavage. All test substances are dosed from 4 weeks after operation for 4 weeks at 50 mg/kg/day.
To induce estrogen-deficient osteoporosis, bilateral ovaries are removed and then closed by routine methods. Operation was conduct under Ketamine hydrochloride and xylazine hydrochloride anesthesia.
The left femur of each mouse were separated at sacrifice, and fixed in 10% neutral buffered formalin (NBF), then decalcified in decalcifying solution (24.4% formic acid, and 0.5N sodium hydroxide) for 5 days (mixed decalcifying solution was exchanges once a day for 5 days). After the dexalcification, the femur was embedded in paraffin, sectioned (3˜4 μm) and stained with hematoxylin-eosin stain.
TBV was calculated using automated image analysis (analySIS Image Processing; SIS, Germany) under magnification of ×200 in the uniform area of trochlea epiphyseal regions (growth plate regions were excluded) of prepared histological specimens. TBV was calculated as percentage (%) levels.
The changes of TBV compared to that of vehicle control are calculated as following Equation 1 to help the understanding of the efficacy of test substances. Percentage changes=[((TBV of a−TBV of b)/TBV of b)×100] Equation 1

SMILES | melting point [°C] | inhibition at 1 µM ([1]; 1 μm) [%] | change in vivo at 50 mg/kg [3] [%] | also measured
CC(C)c1nc(-c2ccc(OCCCCCOc3ccc(C(=N)NO)cc3)cc2)c(Cc2ccccc2)s1 [Example 39, N-hydroxy-4-(5-[4-(5-benzyl-2-isopropyl-1,3-thiazol-4-yl)phenoxy]pentoxy)-benzamidine] | 108 to 120 | 37.5 | – | –
CCCCc1sc(C)nc1-c1ccc(OCCCCCOc2ccc(C(=N)NO)cc2)cc1 [Example 30, N-hydroxy-4-(5-[4-(5-butyl-2-methyl-1,3-thiazol-4-yl)phenoxy]pentoxy)-benzamidine] | 138 to 140 | 47.7 | – | –
CCCCc1sc(-c2cccnc2)nc1-c1ccc(OCCCCCOc2ccc(C(=N)NO)cc2)cc1 [Example 34, N-hydroxy-4-(5-[4-(5-butyl-2-pyridin-3-yl-1,3-thiazol-4-yl)phenoxy]pentoxy)-benzamidine] | 107 to 118 | 28.7 | – | –
Cc1sc(-c2ccccc2)nc1-c1ccc(OCCCCCOc2ccc(C(=N)NO)cc2)cc1 [Example 12, N-hydroxy-4-(5-[4-(5-methyl-2-phenyl-1,3-thiazol-4-yl)phenoxy]pentoxy)-benzamidine] | 124 to 130 | – | – | –
Cc1nc(-c2ccc(OCc3ccc(COc4ccc(C(=N)NO)cc4)cc3)cc2)c(C(C)C)s1 [Example 185, N-hydroxy-4-(4-[4-(5-isopropyl-2-methyl-1,3-thiazol-4-yl)-phenoxymethyl]-benzyloxy)-benzamidine] | – | – | 152 | Changes on the lung weight, Absolute [2]: 0.116 ± 0.003 g; Changes on the lung weight, Relative (%) [2]: 0.720 ± 0.061%; Total leukocytes in peripheral blood (×10^3/1 mm^3) [2]: 11.90 ± 1.45 # ×10^3/1 mm^3; Total leukocytes in BALF (×10^5/1 ml) [2]: 66.47 ± 7.41 # ×10^5/1 ml; inhibition at 1 µM ([1]; 1 m): 89.4%
CCCCc1sc(CC)nc1-c1ccc(OCCCCCOc2ccc(C(=N)NO)cc2)cc1 [Example 31, N-hydroxy-4-(5-[4-(5-butyl-2-ethyl-1,3-thiazol-4-yl)phenoxy]pentoxy)-benzamidine] | 80 to 84 | 35.6 | – | –
CCc1sc(-c2ccccc2)nc1-c1ccc(OCCCCCOc2ccc(C(=N)NO)cc2)cc1 [Example 20, N-hydroxy-4-(5-[4-(5-ethyl-2-phenyl-1,3-thiazol-4-yl)phenoxy]pentoxy)-benzamidine] | 83 to 86 | 35.6 | – | –
N=C(NO)c1ccc(OCCCCCOc2ccc(-c3csc(-c4ccccc4)n3)cc2)cc1 [Example 6, N-hydroxy-4-(5-[4-(2-phenyl-1,3-thiazol-4-yl)phenoxy]pentoxy)-benzamidine] | 133 to 141 | – | – | –
Cc1nc(-c2ccc(OCCCCCOc3ccc(C(=N)NO)cc3)cc2)c(C)s1 [Example 10, N-hydroxy-4-(5-[4-(2,5-dimethyl-1,3-thiazol-4-yl)phenoxy]pentoxy)-benzamidine] | 128 to 133 | 1.8 | – | –
CC(C)c1sc(N2CCOCC2)nc1-c1ccc(OCCCCCOc2ccc(C(=N)NO)cc2)cc1 [Example 169, N-hydroxy-4-(5-[4-(5-isopropyl-2-morpholino-1,3-thiazol-4-yl)phenoxy]pentoxy)-benzamidine] | – | – | 186 | Changes on the lung weight, Absolute [2]: 0.113 ± 0.003 g; Changes on the lung weight, Relative (%) [2]: 0.696 ± 0.032 %; Total leukocytes in peripheral blood (×10^3/1 mm^3) [2]: 13.20 ± 2.22 ×10^3/1 mm^3; Total leukocytes in BALF (×10^5/1 ml) [2]: 72.25 ± 7.95 ×10^5/1 ml; inhibition at 1 µM ([1]; 1 m): 83.3%
N=C(NO)c1ccc(OCCCCCOc2ccc(-c3nc(N4CCOCC4)sc3CC3CCCC3)cc2)cc1 [Example 168, N-hydroxy-4-(5-[4-(5-cyclopentylmethyl-2-morpholino-1,3-thiazol-4-yl)phenoxy]pentoxy)-benzamidine] | – | – | 56.6 | inhibition at 1 µM ([1]; 1 m): 87%
Cc1nc(-c2ccc(OCCCCCOc3ccc(C(=N)NO)cc3)cc2)c(C2CCCC2)s1 [Example 43, N-hydroxy-4-(5-[4-(5-cyclopentyl-2-methyl-1,3-thiazol-4-yl)phenoxy]pentoxy)-benzamidine] | – | 98.6 | 155 | –
